{
  "source": "ChEMBL document CHEMBL1144808",
  "about": "(J Med Chem, 2008)",
  "key": {"[1]": {"assay": "Toxicity against human MIAPaCa2-RFP cells xenografted mouse", "format": "organism-based"}, "[2]": {"system": "NCI-H460", "assay": "Cytotoxicity against human H460 cells under hypoxic condition after 2 hrs by Alamar blue staining assay", "format": "functional, cell-based", "conditions": "NCI-H460, 2 h"}, "[3]": {"assay": "Metabolic stability in mouse liver microsomes at 5 uM after 30 mins", "format": "ADME, Microsome", "conditions": "read-out: Stability"}, "[4]": {"system": "NCI-H460", "assay": "Ratio of IC50 for human H460 cells under normoxic condition to hypoxic condition by Alamar blue staining assay", "format": "functional"}, "[5]": {"system": "NCI-H460", "assay": "Ratio of IC50 for human H460 cells under normoxic condition to hypoxic condition by clonogenic assay", "format": "functional"}, "[6]": {"system": "NCI-H460", "assay": "Cytotoxicity against human H460 cells under normoxic condition after 2 hrs by clonogenic assay", "format": "functional", "conditions": "NCI-H460, 2 h"}, "[7]": {"system": "HT-29", "assay": "Ratio of IC50 for human HT29 cells under normoxic condition to hypoxic condition by clonogenic assay", "format": "functional"}, "[8]": {"system": "Mus musculus", "assay": "Toxicity against human MIAPaCa2 cells xenografted mouse assessed as survival time at 6 mg/kg, ip administered once daily for 5 days a week for 15 days", "format": "organism-based, MIA PaCa-2", "design": "dose 6 mg/kg, route intraperitoneal", "conditions": "in vivo"}, "[9]": {"system": "HT-29", "assay": "Cytotoxicity against human HT29 cells under hypoxic condition after 2 hrs by clonogenic assay", "format": "functional", "conditions": "HT-29, 2 h"}, "[10]": {"system": "HT-29", "assay": "Cytotoxicity against human HT29 cells under normoxic condition after 2 hrs by clonogenic assay", "format": "functional", "conditions": "HT-29, 2 h"}, "[11]": {"system": "NCI-H460", "assay": "Cytotoxicity against human H460 cells under hypoxic condition after 2 hrs by clonogenic assay", "format": "functional", "conditions": "NCI-H460, 2 h"}, "[12]": {"system": "NCI-H460", "assay": "Cytotoxicity against human H460 cells under normoxic condition after 2 hrs by Alamar blue staining assay", "format": "functional, cell-based", "conditions": "NCI-H460, 2 h"}, "[13]": {"assay": "Aqueous solubility at 100 mg at pH 7.4", "format": "physicochemical"}, "[14]": {"system": "Mus musculus", "assay": "Toxicity against human MIAPaCa2 cells xenografted mouse assessed as survival time at 30 mg/kg, ip administered daily once for 5 days a week for 15 days", "format": "organism-based, MIA PaCa-2", "design": "dose 30 mg/kg, route intraperitoneal", "conditions": "in vivo"}, "[15]": {"system": "MIA PaCa-2", "assay": "Antitumor activity against human MIAPaCa2 cells xenografted mouse assessed as tumor growth inhibition at 30 mg/kg, ip administered once daily for 5 days a week for 15 days", "format": "functional", "conditions": "MIA PaCa-2, ip, route intraperitoneal"}, "[16]": {"system": "MIA PaCa-2", "assay": "Antitumor activity against human MIAPaCa2 cells xenografted mouse assessed as tumor growth inhibition at 200 mg/kg, ip administered weekly once for 3 weeks", "format": "functional", "conditions": "MIA PaCa-2, ip, 504 h, route intraperitoneal"}, "[17]": {"system": "Mus musculus", "assay": "Toxicity against human MIAPaCa2 cells xenografted mouse assessed as survival time at 200 mg/kg, ip administered weekly once for 3 weeks", "format": "organism-based, MIA PaCa-2", "design": "dose 200 mg/kg, route intraperitoneal", "conditions": "in vivo, 504 h"}},
  "note": "pIC50: −log10 of the molar value.",
  "data": [
    {"smiles": "O=[N+]([O-])c1ccc(COP(=O)(NCCBr)NCCBr)o1", "values": [
      {"measurement": "MTD", "setting": "[1]", "value": 20, "unit": "mg/kg"},
      {"measurement": "pIC50", "setting": "[2]", "value": 7.08},
      {"measurement": "remaining at 0.5 h, 5 µM", "setting": "[3]", "value": 79, "unit": "%"},
      {"measurement": "Ratio IC50", "setting": "[4]", "value": 170},
      {"measurement": "Ratio IC50", "setting": "[5]", "value": 40},
      {"measurement": "IC90", "setting": "[6]", "value": 2000, "unit": "nM"},
      {"measurement": "Ratio IC50", "setting": "[7]", "value": 30},
      {"measurement": "Survival", "setting": "[8]", "value": 27, "unit": "days"},
      {"measurement": "IC90", "setting": "[9]", "value": 60, "unit": "nM"},
      {"measurement": "IC90", "setting": "[10]", "value": 2000, "unit": "nM"},
      {"measurement": "IC90", "setting": "[11]", "value": 50, "unit": "nM"},
      {"measurement": "pIC50", "setting": "[12]", "value": 4.85},
      {"measurement": "solubility", "setting": "[13]", "value": 4300, "unit": "µg/mL"}
    ]},
    {"smiles": "Nc1n[n+]([O-])c2ccccc2[n+]1[O-]", "note": "[TIRAPAZAMINE]", "values": [
      {"measurement": "pIC50", "setting": "[2]", "value": 4.96},
      {"measurement": "Ratio IC50", "setting": "[4]", "value": ">9"},
      {"measurement": "pIC50", "setting": "[12]", "value": "< 4.00"}
    ]},
    {"smiles": "Cn1c(COP(=O)(NCCBr)NCCBr)cnc1[N+](=O)[O-]", "note": "[EVOFOSFAMIDE]", "values": [
      {"measurement": "MTD", "setting": "[1]", "value": 100, "unit": "mg/kg"},
      {"measurement": "pIC50", "setting": "[2]", "value": 7.72},
      {"measurement": "remaining at 0.5 h, 5 µM", "setting": "[3]", "value": 92, "unit": "%"},
      {"measurement": "Ratio IC50", "setting": "[4]", "value": 270},
      {"measurement": "Ratio IC50", "setting": "[5]", "value": 300},
      {"measurement": "IC90", "setting": "[6]", "value": 30000, "unit": "nM"},
      {"measurement": "Ratio IC50", "setting": "[7]", "value": 200},
      {"measurement": "IC90", "setting": "[9]", "value": 200, "unit": "nM"},
      {"measurement": "IC90", "setting": "[10]", "value": 40000, "unit": "nM"},
      {"measurement": "IC90", "setting": "[11]", "value": 100, "unit": "nM"},
      {"measurement": "pIC50", "setting": "[12]", "value": 5.29},
      {"measurement": "solubility", "setting": "[13]", "value": 5900, "unit": "µg/mL"},
      {"measurement": "Survival", "setting": "[14]", "value": 28, "unit": "days"},
      {"measurement": "inhibition in vivo at 30 mg/kg", "setting": "[15]", "value": 41, "unit": "%"}
    ]},
    {"smiles": "CN(CCCl)P(=O)(OCc1cnc([N+](=O)[O-])n1C)N(C)CCCl", "values": [
      {"measurement": "pIC50", "setting": "[2]", "value": 6.96},
      {"measurement": "remaining at 0.5 h, 5 µM", "setting": "[3]", "value": 15, "unit": "%"},
      {"measurement": "Ratio IC50", "setting": "[4]", "value": 130},
      {"measurement": "pIC50", "setting": "[12]", "value": 4.85}
    ]},
    {"smiles": "Nc1ccn([C@@H]2O[C@H](CO)[C@@H](O)C2(F)F)c(=O)n1", "note": "[GEMCITABINE]", "values": [
      {"measurement": "inhibition in vivo at 200 mg/kg", "setting": "[16]", "value": 82, "unit": "%"},
      {"measurement": "Survival", "setting": "[17]", "value": 42, "unit": "days"}
    ]},
    {"smiles": "Cn1c([N+](=O)[O-])cnc1COP(=O)(NCCBr)NCCBr", "values": [
      {"measurement": "pIC50", "setting": "[2]", "value": 5.24},
      {"measurement": "remaining at 0.5 h, 5 µM", "setting": "[3]", "value": 92, "unit": "%"},
      {"measurement": "Ratio IC50", "setting": "[4]", "value": 8},
      {"measurement": "pIC50", "setting": "[12]", "value": 4.34}
    ]},
    {"smiles": "Cn1c(COP(=O)(N(CCCl)CCCl)N(CCCl)CCCl)cnc1[N+](=O)[O-]", "values": [
      {"measurement": "pIC50", "setting": "[2]", "value": 6.92},
      {"measurement": "remaining at 0.5 h, 5 µM", "setting": "[3]", "value": 0, "unit": "%"},
      {"measurement": "Ratio IC50", "setting": "[4]", "value": 230},
      {"measurement": "pIC50", "setting": "[12]", "value": 4.57}
    ]},
    {"smiles": "Cn1c(COP(=O)(NCCCl)NCCCl)cnc1[N+](=O)[O-]", "values": [
      {"measurement": "pIC50", "setting": "[2]", "value": 6.68},
      {"measurement": "remaining at 0.5 h, 5 µM", "setting": "[3]", "value": 90, "unit": "%"},
      {"measurement": "Ratio IC50", "setting": "[4]", "value": 420},
      {"measurement": "pIC50", "setting": "[12]", "value": 4.06}
    ]}
  ]
}
